Measurements reported in patent US20120270929A1, “MODULATION OF TTC39 EXPRESSION TO INCREASE HDL” (ISIS Pharmaceuticals, Inc., priority 2009, published 2012).
Oligonucleotides are written 5' to 3', each unit as a sugar letter and its base; * is a phosphorothioate linkage, no mark a phosphodiester; rarer units and linkages stand in square brackets, end groups in braces. Plain capitals give the bases only. e = 2'-O-(2-methoxyethyl) (MOE); [5mC] = 5-methylcytosine; d = 2'-deoxy (DNA)

How the values were obtained:
Type in all cases: cell-based
murine TTC39B mRNA [1] = experiment: Dose-dependent antisense inhibition of murine TTC39B in mouse primary hepatocytes (Example 2); details: cytofectin, ~16 h
Experimental: Cells were plated at a density of 10,000 cells per well and transfected using cytofectin reagent with 25 nM, 50 nM, 100 nM, and 200 nM concentrations of antisense oligonucleotide, as specified in Table 3. After a treatment period of approximately 16 hours, RNA was isolated from the cells and TTC39B mRNA levels were measured by quantitative real-time PCR. Murine primer probe set mTtc39b_LTS00287 (forward sequence: […], incorporated herein as SEQ ID NO: 94; reverse sequence: […], incorporated herein as SEQ ID NO: 95; probe sequence: […], incorporated herein as SEQ ID NO: 96) was used to measure mRNA levels. TTC39B mRNA levels were adjusted according to total RNA content, as measured by RIBOGREEN®. Results are presented as percent inhibition of TTC39B, relative to untreated control cells.

murine TTC39B mRNA [2] = experiment: Antisense inhibition of murine TTC39B in mouse primary hepatocytes, single dose; details: 100 nM, cytofectin, ~24 h, vs untreated control
Experimental: Antisense oligonucleotides targeted to a TTC39B nucleic acid were tested for their effects on TTC39B mRNA in vitro. Cultured mouse primary hepatocytes at a density of 10,000 cells per well were transfected using cytofectin reagent with 100 nM antisense oligonucleotide. After a treatment period of approximately 24 hours, RNA was isolated from the cells and TTC39B mRNA levels were measured by quantitative real-time PCR. TTC39B mRNA levels were adjusted according to total RNA content, as measured by RIBOGREEN®. Results are presented as percent inhibition of TTC39B, relative to untreated control cells.
The chimeric antisense oligonucleotides in Tables 1 and 2 were designed as 5-10-5 MOE gapmers. The gapmers are 20 nucleotides in length, wherein the central gap segment is comprised of 10 2′-deoxynucleotides and is flanked on both sides (in the 5′ and 3′ directions) by wings comprising 5 nucleotides each. Each nucleotide in the 5′ wing segment and each nucleotide in the 3′ wing segment has a 2′-MOE modification. The internucleoside linkages throughout each gapmer are phosphorothioate (P═S) linkages. All cytosine residues throughout each gapmer are 5-methylcytosines. “Target start site” indicates the 5′-most nucleotide to which the gapmer is targeted. “Target stop site” indicates the 3′-most nucleotide to which the gapmer is targeted. Each gapmer listed in Table 1 is targeted to SEQ ID NO: 6 (GENBANK Accession No. NM_027238.2) and each gapmer listed in Table 2 is targeted to SEQ ID NO: 10 (the complement of GENBANK Accession No. NT—039260.7 truncated at nucleotides 22491001 to 22601000), SEQ ID NO: 11 (GENBANK Accession No. BY244623.1), SEQ ID NO: 12 (GENBANK Accession No. BY260936), SEQ ID NO: 13 (GENBANK Accession No. BM935568.1) or SEQ ID NO: 14 (GENBANK Accession No. BY728780.1).

murine TTC39C mRNA [3] = experiment: Antisense inhibition of mouse TTC39C in mouse primary hepatocytes, single dose; details: 8,000 nM antisense oligonucleotide, electroporation, approximately 24 hours, TTC39C mRNA by real-time PCR (RTS3266), relative to untreated control cells
Experimental: Antisense oligonucleotides were designed targeting a TTC39C nucleic acid and were tested for their effects on TTC39C mRNA in vitro. Cultured mouse primary hepatocytes at a density of 30,000 cells per well were transfected by electroporation with 8,000 nM antisense oligonucleotide. After a treatment period of approximately 24 hours, RNA was isolated from the cells and TTC39C mRNA levels were measured by quantitative real-time PCR. Mouse primer probe set RTS3266 (forward sequence […], designated herein as SEQ ID NO: 140; reverse sequence […], designated herein as SEQ ID NO: 141; probe sequence […], designated herein as SEQ ID NO: 142). TTC39C mRNA levels were adjusted according to total RNA content, as measured by RIBOGREEN®. Results are presented as percent inhibition of TTC39C, relative to untreated control cells.
The chimeric antisense oligonucleotides targeting TTC39C were designed as 5-10-5 MOE gapmers. The gapmers are 20 nucleotides in length, wherein the central gap segment is comprised of ten 2′-deoxynucleotides and is flanked on both sides (in the 5′ and 3′ directions) by wings comprising five nucleotides each. Each nucleotide in the 5′ wing segment and each nucleotide in the 3′ wing segment has a 2′-MOE modification. The internucleoside linkages throughout each gapmer are phosphorothioate (P═S) linkages. All cytosine residues throughout each gapmer are 5-methylcytosines. “Mouse Target start site” indicates the 5′-most nucleotide to which the gapmer is targeted in the mouse gene sequence.

murine TTC39C mRNA [4] = experiment: Dose-dependent antisense inhibition of murine TTC39C in mouse primary hepatocytes; details: electroporation, ~16 h
Experimental: Thirty antisense oligonucleotides were selected from the study described in Example 8 and further tested at various doses in mouse primary hepatocytes. Cells were plated at a density of 30,000 cells per well and transfected using electroporation with 500 nM, 1,000 nM, 2,000 nM, 4,000 nM, and 8,000 nM concentrations of antisense oligonucleotide, as specified in Table 30. After a treatment period of approximately 16 hours, RNA was isolated from the cells and TTC39C mRNA levels were measured by quantitative real-time PCR. Murine primer probe set RTS3266 was used to measure mRNA levels. TTC39C mRNA levels were adjusted according to total RNA content, as measured by RIBOGREEN®. Results are presented as percent inhibition of TTC39C, relative to untreated control cells.

[5] = gapmers targeted to SEQ ID NO: 6

| Substance | percent inhibition of TTC39B mRNA (murine TTC39B mRNA [1]; 25 nM) | percent inhibition of TTC39B mRNA (murine TTC39B mRNA [1]; 50 nM) | percent inhibition of TTC39B mRNA (murine TTC39B mRNA [1]; 100 nM) | percent inhibition of TTC39B mRNA (murine TTC39B mRNA [1]; 200 nM) | % inhibition of murine TTC39B mRNA (murine TTC39B mRNA [2]; [5]) | % inhibition of murine TTC39B mRNA (murine TTC39B mRNA [2]; gapmers targeted to SEQ ID NO: 10-14) | % inhibition (murine TTC39C mRNA [3]) | percent inhibition of TTC39C mRNA (murine TTC39C mRNA [4]; 500.0 nM) | percent inhibition of TTC39C mRNA (murine TTC39C mRNA [4]; 1000.0 nM) | percent inhibition of TTC39C mRNA (murine TTC39C mRNA [4]; 2000.0 nM) | percent inhibition of TTC39C mRNA (murine TTC39C mRNA [4]; 4000.0 nM) | percent inhibition of TTC39C mRNA (murine TTC39C mRNA [4]; 8000.0 nM) |
| --- | --- | --- | --- | --- | --- | --- | --- | --- | --- | --- | --- | --- |
| ATGCCATTCTGGATGTCCTG (antisense eA*eT*eG*e[5mC]*e[5mC]*dA*dT*dT*d[5mC]*dT*dG*dG*dA*dT*dG*eT*e[5mC]*e[5mC]*eT*eG) [ISIS 447106] | 41% | 55% | 78% | 87% | 70% | – | – | – | – | – | – | – |
| GAGATCAGTTTCTGATGAAA (antisense eG*eA*eG*eA*eT*d[5mC]*dA*dG*dT*dT*dT*d[5mC]*dT*dG*dA*eT*eG*eA*eA*eA) [ISIS 447169] | 17% | 43% | 65% | 81% | – | 67% | – | – | – | – | – | – |
| GAGTCCACCTTTGATGAAGT (antisense eG*eA*eG*eT*e[5mC]*d[5mC]*dA*d[5mC]*d[5mC]*dT*dT*dT*dG*dA*dT*eG*eA*eA*eG*eT) [ISIS 447110] | 39% | 52% | 77% | 87% | 69% | – | – | – | – | – | – | – |
| GCCAATCTAAAAATGGCTCA (antisense eG*e[5mC]*e[5mC]*eA*eA*dT*d[5mC]*dT*dA*dA*dA*dA*dA*dT*dG*eG*e[5mC]*eT*e[5mC]*eA) [ISIS 447135] | 35% | 52% | 66% | 76% | 67% | – | – | – | – | – | – | – |
| GCTCAGCTTGCAAGGGCCGC (antisense eG*e[5mC]*eT*e[5mC]*eA*dG*d[5mC]*dT*dT*dG*d[5mC]*dA*dA*dG*dG*eG*e[5mC]*e[5mC]*eG*e[5mC]) [ISIS 447127] | 40% | 62% | 84% | 90% | 65% | – | – | – | – | – | – | – |
| GGACTGCCTGCCATGGGTGC (antisense eG*eG*eA*e[5mC]*eT*dG*d[5mC]*d[5mC]*dT*dG*d[5mC]*d[5mC]*dA*dT*dG*eG*eG*eT*eG*e[5mC]) [ISIS 447146] | 44% | 55% | 78% | 89% | 69% | – | – | – | – | – | – | – |
| GGAGGTCCCCTGGCCACGGC (antisense eG*eG*eA*eG*eG*dT*d[5mC]*d[5mC]*d[5mC]*d[5mC]*dT*dG*dG*d[5mC]*d[5mC]*eA*e[5mC]*eG*eG*e[5mC]) [ISIS 447151] | 39% | 56% | 76% | 85% | 65% | – | – | – | – | – | – | – |
| GGCACTCTTTATATATTTGG (antisense eG*eG*e[5mC]*eA*e[5mC]*dT*d[5mC]*dT*dT*dT*dA*dT*dA*dT*dA*eT*eT*eT*eG*eG) [ISIS 447111] | 30% | 60% | 77% | 87% | 71% | – | – | – | – | – | – | – |
| GGTGGAGTCTGGCCCTCAGC (antisense eG*eG*eT*eG*eG*dA*dG*dT*d[5mC]*dT*dG*dG*d[5mC]*d[5mC]*d[5mC]*eT*e[5mC]*eA*eG*e[5mC]) [ISIS 447142] | 36% | 64% | 85% | 91% | 66% | – | – | – | – | – | – | – |
| GTTGCCTTGGACCATTTACT (antisense eG*eT*eT*eG*e[5mC]*d[5mC]*dT*dT*dG*dG*dA*d[5mC]*d[5mC]*dA*dT*eT*eT*eA*e[5mC]*eT) [ISIS 447122] | 35% | 61% | 78% | 88% | 67% | – | – | – | – | – | – | – |
| ISIS 474515: 5-10-5 MOE gapmer antisense oligonucleotide targeting murine TTC39C (antisense eT*e[5mC]*e[5mC]*e[5mC]*eT*dG*dA*dA*dG*d[5mC]*d[5mC]*dG*dT*dT*dG*eT*eT*eG*eA*eG) | – | – | – | – | – | – | 96% | 56% | 62% | 79% | 91% | 94% |
| TCGAAATGTTTCTTGAGCCT (antisense eT*e[5mC]*eG*eA*eA*dA*dT*dG*dT*dT*dT*d[5mC]*dT*dT*dG*eA*eG*e[5mC]*e[5mC]*eT) [ISIS 447119] | 28% | 52% | 80% | 77% | 65% | – | – | – | – | – | – | – |
| TGAATGCTATTATTGGATCT (antisense eT*eG*eA*eA*eT*dG*d[5mC]*dT*dA*dT*dT*dA*dT*dT*dG*eG*eA*eT*e[5mC]*eT) [ISIS 447140] | 29% | 55% | 77% | 80% | 66% | – | – | – | – | – | – | – |
